In brackets after ≈: the same amount, converted by molar mass. Values belong to the compound of their own block, whether it stands above or below them. Bridge positions count the residues as written; N and C are the ends. Square brackets hold non-standard residues; d marks the D form. Peptide text beside a SMILES is read from it. * marks the point of attachment. dOrn = NCCC[C@@H](N)C(=O)O; Nonanoyl = CCCCCCCCC(=O)*; Orn = NCCC[C@H](N)C(=O)O
Tests used:
[1] = test system: P. aeruginosa PAO1; assay: Static time-kill study; assay type: cell-based; settings: 8 × MIC, over 24 h
Procedure: (§1) MICs for laterocidine and its various analogues were determined by broth microdilution[49] for the following polymyxin-susceptible ATCC and clinical isolates: P. aeruginosa FADDI-PA022, FADDI-PA001, FADDI-PA025, FADDI-PA070, FADDI-PA060; A. baumannii FADDI-AB134, FADDI-AB034, FADDI-AB030, FADDI-AB174, FADDI-AB241; K. pneumoniae FADDI-KP032, FADDI-KP022, BM1, FADDI-KP065, FADDI-KP064, FADDI-KP003; and E. cloacae FADDI-EC001, FADDI-EC003, and FADDI-EC006. Experiments were performed with cation-adjusted Mueller–Hinton broth (CAMHB) in 96-well polystyrene microtiter plates. Wells were inoculated with 100 μL of bacterial suspension prepared in CAMHB (containing ∼10^6 CFU/mL) and 100 μL of CAMHB containing increasing concentrations of polymyxins (0–32 μg/mL). MIC measurements were performed in duplicate, with the MIC being the lowest concentration at which visible growth was inhibited following 18–20 h of incubation at 37 °C. Bacterial killing kinetics was investigated over 24 h as described previously.[50]

[2] = test system: P. aeruginosa PAO1R; assay: Static time-kill study; assay type: cell-based; settings: 8 × MIC, over 24 h
Procedure: as §1

[3] = test system: P. aeruginosa PAO1R; assay: MIC; assay type: cell-based; settings: polymyxin-resistant paired strain of PAO1
[4] = test system: P. aeruginosa FADDI-PA070; assay: Neutropenic murine bloodstream infection model; assay type: in vivo, P. aeruginosa in mice; settings: for Bacteria load in blood: 8 mg/kg iv (free base) 2 h postinoculation, neutropenic mice, 4 h time point, N = 3, mean
Procedure: (§2) All animal studies were approved by the Monash University Animal Ethics Committee and involved female Swiss mice (22–28 g, 7-week-old) housed in microisolators within a PC2 animal laboratory. Mice were kept under a 12/12 h dark/light cycle at 20–24 °C and 50–70% ambient humidity.
The neutropenic bloodstream infection model was undertaken as previously described.[39] Mice were rendered neutropenic through intraperitoneal injections of cyclophosphamide administered 4 days (150 mg/kg) and 1 day (100 mg/kg) prior to inoculation. Bloodstream infection was established by administering a 50 μL bolus of early log-phase bacterial suspension (4 × 10^8 CFU/mL). Laterocidine, peptide 11, and polymyxin B solutions were prepared in sterile saline at a concentration of 1 mg/mL (free base). Two hours postinoculation, mice (n = 3) were injected intravenously with either polymyxin B at 4 mg/kg (free base), peptide 11 at 8 mg/kg (free base), laterocidine at 8 mg/kg (free base), or saline (control mice). Blood was collected immediately after (0 h) and 4 h after drug administration, serially diluted with sterile saline, and appropriately diluted samples manually plated on nutrient agar prior to overnight incubation at 37 °C. Colonies were counted manually and the bacterial load (log10 CFU/mL) in the blood of each mouse calculated. In vivo efficacy was calculated as the difference between the log10 CFU/mL blood values of treated and control mice 4 h postdosing (Δlog10 CFU/mL blood = log10 [treated] CFU/mL blood–log10[control] CFU/mL blood).[54]

[5] = test system: female Swiss mice; assay: Acute toxicity in mice (maximum tolerable dose); assay type: in vivo; settings: intravenous bolus via lateral tail vein, free base, N = 3
Procedure: as §2
For the acute toxicity studies, peptide 11 and laterocidine solutions were prepared in 0.9% saline and stored at 4 °C before use. All mice were administered an intravenous bolus of one peptide (mg/kg free base) via a lateral tail vein (≤0.1 mL). Following the injection, mice were released back into their respective home cages and individually monitored for 24 h for signs of clinical toxicity. Mice displaying any signs of toxicity were humanely euthanized according to the recommended Euthanasia/Humane Experimental End point Criteria.

[6] = test system: P. aeruginosa PAO1; assay: MIC; assay type: cell-based; settings: polymyxin-susceptible reference strain
[7] = test system: Gram-negative strains of P. aeruginosa, A. baumannii, K. pneumoniae, and E. cloacae; assay type: cell-based
Procedure: as §1

[8] = test system: A. baumannii 5075R; assay type: cell-based; settings: lipid A modified with phosphoethanolamine
[9] = test system: A. baumannii 5075D; assay type: cell-based; settings: lacks lipid A in the outer membrane
[10] = test system: A. baumannii 5075 (wild type); assay: MIC; assay type: cell-based
[11] = test system: A. baumannii; assay type: cell-based
Procedure: as §1

[12] = test system: P. aeruginosa; assay type: cell-based; settings: compared with native laterocidine
Procedure: as §1

[13] = test system: E. cloacae; assay type: cell-based; settings: compared with native laterocidine
Procedure: as §1

[14] = test system: K. pneumoniae; assay type: cell-based
Procedure: as §1

[15] = test system: human kidney proximal tubular (HK-2) cells; assay: Viability of human kidney proximal tubular cells; assay type: cell-based; settings: 24 h of treatment, fluorescence microscopy, mean ± SD, n = 3
Text: The fluorescence microscopy method used to culture HK-2 cells and the use of fluorescence microscopy to determine the percent cell viability (%) following peptide treatment are the same as published previously.[59],[60]

[16] = compared with native laterocidine

Compound: CCCCCCCCC(=O)N[C@H](CO)C(=O)N[C@H](Cc1ccc(O)cc1)C(=O)N[C@H](Cc1c[nH]c2ccccc12)C(=O)N[C@H](CCCN)C(=O)N[C@@H](CCCN)C(=O)NCC(=O)N[C@H](CCCN)C(=O)N[C@@H](Cc1c[nH]c2ccccc12)C(=O)N[C@@H]1C(=O)N[C@@H]([C@@H](C)CC)C(=O)N[C@@H](CC(N)=O)C(=O)NCC(=O)NCC(=O)O[C@@H]1C [Peptide 11] (Nonanoyl-[dS][dY][dW][dOrn][Orn]G[dOrn]WTINGG; ester 9-C)
time-kill outcome against P. aeruginosa PAO1 [1]: substantial bacterial regrowth nevertheless occurred at all concentrations
time-kill outcome against P. aeruginosa PAO1R [2]: completely inhibiting the growth
time-kill outcome against P. aeruginosa PAO1R ([2]; listed as peptide 11): no viable bacteria were detected at 24 h
MIC, P. aeruginosa PAO1R [3]: 2 µg/mL (≈ 1.25 µM)
Bacteria load in blood [4]: 2.70%
Bacteria load in blood ([4]; listed as peptide 11): 2.7%
fold increase in antimicrobial activity compared to native laterocidine (peptide 1) ([4]; murine bloodstream infection model, 8 mg/kg): 8 fold
maximum tolerable dose (MTD), Iv (Bolus) [5]: 13.2 mg/kg
MIC, P. aeruginosa PAO1 [6]: 2 µg/mL (≈ 1.25 µM)
MICs against all tested strains (range) ([7]; all tested Gram-negative strains): identical MICs to laterocidine
MIC, A. baumannii 5075 R [8]: 32 µg/mL (≈ 19.9 µM)
MIC, A. baumannii 5075 D [9]: 32 µg/mL (≈ 19.9 µM)
MIC, A. baumannii 5075 S [10]: 8 µg/mL (≈ 4.98 µM)

MICs against A. baumannii (range over strains) [11]: 8 to 32 µg/mL
fold increase in MIC (loss of activity) against A. baumannii [11, 16]: 2–8 fold
Compound: CCCCCCCCC(=O)N[C@H](CO)C(=O)N[C@H](Cc1ccc(O)cc1)C(=O)N[C@H](Cc1c[nH]c2ccccc12)C(=O)N[C@H](CCCN)C(=O)N[C@@H](CCCN)C(=O)NCC(=O)N[C@H](CCCN)C(=O)N[C@@H](Cc1c[nH]c2ccccc12)C(=O)N[C@H]1COC(=O)CNC(=O)CNC(=O)[C@H](CC(N)=O)NC(=O)[C@H]([C@@H](C)CC)NC1=O [Peptide 15] (Nonanoyl-[dS][dY][dW][dOrn][Orn]G[dOrn]WSINGG; ester 9-C)
fold less activity against the two MDR strains of P. aeruginosa [12]: 8–16 fold

fold increase in MIC (loss of activity) against all strains / all species [7, 16]: no more than 1 fold
fold increase in MIC for two E. cloacae strains [13]: 2 fold
Compound: CCCCCCCCC(=O)N[C@H](CO)C(=O)N[C@H](Cc1ccc(O)cc1)C(=O)N[C@H](Cc1c[nH]c2ccccc12)C(=O)N[C@H](CCCN)C(=O)N[C@@H](CCCN)C(=O)NCC(=O)N[C@H](CCCN)C(=O)N[C@@H](Cc1c[nH]c2ccccc12)C(=O)N[C@@H]1C(=O)N[C@@H]([C@@H](C)CC)C(=O)N[C@@H](CC(N)=O)C(=O)NCC(=O)N[C@@H](C)C(=O)O[C@@H]1C [Peptide 24] (Nonanoyl-[dS][dY][dW][dOrn][Orn]G[dOrn]WTINGA; ester 9-C)

MICs against A. baumannii (range over strains) [11]: ≥ 32 µg/mL
MICs against K. pneumoniae (range over strains) [14]: 2 to 32 µg/mL
Compound: CCCCCCCCC(=O)N[C@H](C)C(=O)N[C@H](Cc1ccc(O)cc1)C(=O)N[C@H](Cc1c[nH]c2ccccc12)C(=O)N[C@H](CCCN)C(=O)N[C@@H](CCCN)C(=O)NCC(=O)N[C@H](CCCN)C(=O)N[C@@H](Cc1c[nH]c2ccccc12)C(=O)N[C@@H]1C(=O)N[C@@H]([C@@H](C)CC)C(=O)N[C@@H](CC(N)=O)C(=O)NCC(=O)NCC(=O)O[C@@H]1C [Peptide 35] (Nonanoyl-[dA][dY][dW][dOrn][Orn]G[dOrn]WTINGG; ester 9-C)

Compound: CC[C@H](C)CCCCC(=O)N[C@@H](CCN)C(=O)N[C@H](C(=O)N[C@@H](CCN)C(=O)N[C@H]1CCNC(=O)[C@H]([C@@H](C)O)NC(=O)[C@H](CCN)NC(=O)[C@H](CCN)NC(=O)[C@H](CC(C)C)NC(=O)[C@@H](Cc2ccccc2)NC(=O)[C@H](CCN)NC1=O)[C@@H](C)O [polymyxin B, reference compound] (HELM PEPTIDE1{[CC[C@H](C)CCCCC(=O)[*:2]].[Dab].T.[Dab].[Dab].[Dab].[dF].L.[Dab].[Dab].T}$PEPTIDE1,PEPTIDE1,5:R3-11:R2$$$V2.0; N-terminus assumed; bridges inferred)
time-kill outcome against P. aeruginosa PAO1 [1]: no viable bacteria were detected at 1 h, rapid and significant regrowth subsequently occurred
time-kill outcome against P. aeruginosa PAO1R [2]: no viable bacteria detected at 8 × MIC on multiple occasions, including at 24 h
MIC, P. aeruginosa PAO1R [3]: 16 µg/mL (≈ 13.3 µM)
maximum tolerable dose (MTD), Iv (Bolus) [5]: 5 mg/kg
MIC, P. aeruginosa PAO1 [6]: 0.5 µg/mL (≈ 0.415 µM)
cell viability of HK-2 cells ([15]; 0.01 mM): 74.8 ± 2.6%
cell viability of HK-2 cells ([15]; 0.1 mM): 6.4 ± 3.6%

— paper PMC11428279, “Exploring Structure–Activity Relationships and Modes of Action of Laterocidine” (ACS Central Science, 2024)
